Results on 11 molecules are retold here after patent US9663458B2, “Diaminoguanidine derivatives and application thereof in preparation of animal growth promoters used in feed” (priority 2014, dated 2017).

Where “and” joins values, the source holds several entries; their conditions need not be identical. Identical values can stand only once. Like-named read-outs stand apart in the source and are kept apart here.

For one data set, the system named is Clostridium perfringens. Kind of data set: microbe, parasite or virus in culture. The class given is cell-based.
Another data set relates to cherry valley ducks. Kind of data set: Feeding trial (ducks). The class given is in vivo. The settings on record: 20 ppm in basal diet, 30 days; for Average feed conversion efficiency: control 2.16; for Average weight gain: control 55.8. The text has this:
800 1-day-old cherry valley ducks were divided into 8 groups, 100 ducks in each group. […] The compounds of IST_007 series can substantially enhance the productivity of the ducks, concluded from the results.

Data set [1] has as its system yellow feather broilers (female). Kind of data set: Feeding trial (broilers). The class given is in vivo. The settings on record: 20 ppm in feed, 30 days; for Feed conversion efficiency: controls 2.15, 2.11, hydrochloride; for Average daily weight gain: controls 23.7, hydrochloride; for Average weight gain: controls 713, 712, hydrochloride; for Consumption: group of 50, controls 76.6, 75.2, hydrochloride. An excerpt:
400 1-day-aged, healthy, fast-grown yellow feather broilers (female) in the same growing state and similar in weight were randomly divided into eight groups according to table 5, 50 broilers in each group. Broilers in each group were fed with different dosage of the IST_007 series compounds.

In data set [2] the test system is Duroc-YorkShire-Landrace crossbred lean pigs. Kind of data set: Feeding trial (pigs). As to conditions: 25 mg/kg mixed with feed, 14 days; for Average daily weight gain: controls 0.44, 0.43, hydrochloride; for Feed conversion efficiency: controls 2.13, 2.11, hydrochloride; for Average weight gain: controls 6.2, 6.1, hydrochloride; for Consumption: group of 15, controls 198.3, 192.9, hydrochloride.

[3] abbreviates: read-out: Minimum inhibitory concentration (MIC), strain CP-JM-1208-H, in vitro.
[4] abbreviates: read-out: Minimum inhibitory concentration (MIC), strain CP-JM-1210-B, in vitro.
[5] abbreviates: read-out: Minimum inhibitory concentration (MIC), strain CP-JM-1210-E, in vitro.
The mark [6] stands for this setting: read-out: Minimum inhibitory concentration (MIC), strain RA-FS-1308-1, in vitro.
Setting [7] is: read-out: Minimum inhibitory concentration (MIC), strain RA-GD-1211-D, in vitro.
Setting [8] is: read-out: Minimum inhibitory concentration (MIC), strain RA-HN-1211-C, in vitro.

As for `COc1ccc(/C=N/NC(=N)N/N=C/c2ccc(OC)cc2)cc1.Cl` [IST_007_001, 1,3-bis[(4-methoxybenzylidene)amino]guanidine hydrochloride], the MIC stood at 12.5 µg/mL in the data set with Clostridium perfringens (setting [3]); 1.56 µg/mL with Clostridium perfringens (setting [4]); 50 µg/mL with Clostridium perfringens (setting [5]); 6.25 µg/mL with Riemerella anatipestifer (setting [6]); 3.13 µg/mL in the data set on Riemerella anatipestifer (setting [7]); 3.13 µg/mL in the data set with Riemerella anatipestifer (setting [8]). Moreover, the “Survival rate (%)” value (in the data set on cherry valley ducks; in data set [1]) was 100% each time. For the same molecule, the “Average feed conversion efficiency” value in the data set on cherry valley ducks worked out at 2.01. For the same molecule, the Average weight gain with cherry valley ducks was 62.1; in data set [1], 764 g and 775 g. In addition, the Feed conversion efficiency in data set [1] was 1.88 and 1.91. Moreover, the “Average daily weight gain” value in data set [1] was 25.5 g and 25.8 g. The “Consumption” value in data set [1] was 71.7 kg and 73.8 kg.
In the case of `CCOc1ccc(C=NNC(=N)NN=Cc2ccc(OCC)cc2)cc1.Cl` [IST_007_002, 1,3-bis[(4-ethoxybenzylidene)amino]guanidine hydrochloride], the MIC in the data set with Clostridium perfringens (setting [3]) is over 100 µg/mL; in the data set on Clostridium perfringens (setting [4]), 0.2 µg/mL; in the data set with Clostridium perfringens (setting [5]), over 100 µg/mL; with Riemerella anatipestifer (setting [6]), over 100 µg/mL; in the data set on Riemerella anatipestifer (setting [7]), over 100 µg/mL; in the data set with Riemerella anatipestifer (setting [8]), over 100 µg/mL.
For `CC(C)Oc1ccc(C=NNC(=N)NN=Cc2ccc(OC(C)C)cc2)cc1.Cl` [IST_007_003, 1,3-bis[(4-isopropoxybenzylidene)amino]guanidine hydrochloride], the MIC amounted to 12.5 µg/mL in the data set on Clostridium perfringens (setting [3]); 3.13 µg/mL with Clostridium perfringens (setting [4]); 12.5 µg/mL in the data set on Clostridium perfringens (setting [5]); 1.56 µg/mL in the data set with Riemerella anatipestifer (setting [6]); 1.56 µg/mL with Riemerella anatipestifer (setting [7]); 1.56 µg/mL in the data set with Riemerella anatipestifer (setting [8]). Besides, the “Survival rate (%)” value (in the data set with cherry valley ducks; in data set [1]) was 100% each time. The “Average feed conversion efficiency” value with cherry valley ducks is 2.03. Besides, the Average weight gain in the data set with cherry valley ducks was 63.6; in data set [1], 791 g and 795 g; in data set [2] it was 7.8 kg and 8.2 kg. Further, the Feed conversion efficiency in data set [1] was 1.86 and 1.82; in data set [2] it was 1.84 and 1.65. For the same molecule, the “Average daily weight gain” value is 26.3 g and 26.5 g in data set [1]; 0.56 kg/day and 0.58 kg/day in data set [2]. Besides, the “Consumption” value in data set [1] is 73.7 kg and 72.3 kg; in data set [2] it was 215.3 kg and 203.4 kg.
Regarding `CCCCOc1ccc(C=NNC(=N)NN=Cc2ccc(OCCCC)cc2)cc1.Cl` [IST_007_005, 1,3-bis[(4-butoxybenzylidene)amino]guanidine hydrochloride], the MIC stood at 12.5 µg/mL in the data set with Clostridium perfringens (setting [3]); 0.78 µg/mL with Clostridium perfringens (setting [4]); 25 µg/mL with Clostridium perfringens (setting [5]); 1.56 µg/mL with Riemerella anatipestifer (setting [6]); 1.56 µg/mL in the data set with Riemerella anatipestifer (setting [7]); 1.56 µg/mL in the data set with Riemerella anatipestifer (setting [8]). Moreover, the “Survival rate (%)” value (in the data set with cherry valley ducks; in data set [1]) was 100% each time. Further, the “Average feed conversion efficiency” value in the data set on cherry valley ducks turned out to be 2.07. The Average weight gain in the data set on cherry valley ducks was 62.4; in data set [1] it was 796 g and 787 g. Further, the Feed conversion efficiency in data set [1] was 1.86 and 1.84. Moreover, in data set [1], the “Average daily weight gain” value was 26.5 g and 26.2 g. Further, in data set [1], the “Consumption” value is 74.1 kg and 72.5 kg.
In the case of `CCCCCOc1ccc(C=NNC(=N)NN=Cc2ccc(OCCCCC)cc2)cc1.Cl` [IST_007_019, 1,3-bis[(4-pentoxybenzylidene)amino]guanidine hydrochloride], the MIC was over 200 µg/mL with Clostridium perfringens (setting [3]); over 200 µg/mL in the data set on Clostridium perfringens (setting [4]); over 200 µg/mL with Clostridium perfringens (setting [5]); over 200 µg/mL with Riemerella anatipestifer (setting [6]); 0.39 µg/mL with Riemerella anatipestifer (setting [7]); over 200 µg/mL in the data set on Riemerella anatipestifer (setting [8]).
Regarding `CCCCCCCCOc1ccc(C=NNC(=N)NN=Cc2ccc(OCCCCCCCC)cc2)cc1.Cl` [IST_007_020, 1,3-bis[(4-octoxybenzylidene)amino]guanidine hydrochloride], the MIC in the data set with Clostridium perfringens (setting [3]), in the data set with Clostridium perfringens (setting [4]), in the data set on Clostridium perfringens (setting [5]), with Riemerella anatipestifer (setting [6]), in the data set with Riemerella anatipestifer (setting [7]) and in the data set on Riemerella anatipestifer (setting [8]) was over 200 µg/mL throughout.
On to `CCC(C)Oc1ccc(C=NNC(=N)NN=Cc2ccc(OC(C)CC)cc2)cc1.Cl` (centres unmarked) [IST_007_022, 1,3-bis[(4-sec-butoxybenzylidene)amino]guanidine hydrochloride], for which the MIC with Clostridium perfringens (setting [3]) worked out at 12.5 µg/mL; in the data set with Clostridium perfringens (setting [4]), 12.5 µg/mL; with Clostridium perfringens (setting [5]) it was 12.5 µg/mL; in the data set with Riemerella anatipestifer (setting [6]), 1.56 µg/mL; in the data set with Riemerella anatipestifer (setting [7]), 0.2 µg/mL; with Riemerella anatipestifer (setting [8]) it was 1.56 µg/mL. For the same molecule, the “Survival rate (%)” value in the data set with cherry valley ducks was determined as 100%. Further, the “Average feed conversion efficiency” value with cherry valley ducks is reported as 2.08. For the same molecule, in the data set on cherry valley ducks, the Average weight gain is 61.3.
For the molecule `CCC(CC)Oc1ccc(C=NNC(=N)NN=Cc2ccc(OC(CC)CC)cc2)cc1.Cl` [IST_007_023, 1,3-bis[[4-(3-pentoxy)benzylidene]amino]guanidine hydrochloride], the MIC in the data set with Clostridium perfringens (setting [3]) was 12.5 µg/mL; with Clostridium perfringens (setting [4]), 12.5 µg/mL; in the data set on Clostridium perfringens (setting [5]) it was 12.5 µg/mL; in the data set on Riemerella anatipestifer (setting [6]), 1.56 µg/mL; with Riemerella anatipestifer (setting [7]), 0.78 µg/mL; in the data set with Riemerella anatipestifer (setting [8]), 1.56 µg/mL. For the same molecule, the “Survival rate (%)” value with cherry valley ducks is 100%. In the data set with cherry valley ducks, the “Average feed conversion efficiency” value came out at 2.05. The same molecule yielded an Average weight gain in the data set on cherry valley ducks of 62.4.
On to `Cl.N=C(NN=Cc1ccc(OC2CCCC2)cc1)NN=Cc1ccc(OC2CCCC2)cc1` [IST_007_024, 1,3-bis[(4-cyclopentoxybenzylidene)amino]guanidine hydrochloride], for which the MIC was found to be 1.56 µg/mL in the data set on Clostridium perfringens (setting [3]); 1.56 µg/mL in the data set on Clostridium perfringens (setting [4]); 3.13 µg/mL in the data set on Clostridium perfringens (setting [5]); 0.39 µg/mL in the data set on Riemerella anatipestifer (setting [6]); 0.78 µg/mL in the data set on Riemerella anatipestifer (setting [7]); 0.39 µg/mL in the data set on Riemerella anatipestifer (setting [8]). Moreover, the “Survival rate (%)” value in the data set with cherry valley ducks is on record as 100%. Moreover, the “Average feed conversion efficiency” value in the data set on cherry valley ducks is on record as 2.09. This molecule also registered an Average weight gain with cherry valley ducks of 63.1.
For the molecule `Cl.N=C(NN=Cc1ccc(OCc2ccccc2)cc1)NN=Cc1ccc(OCc2ccccc2)cc1` [IST_007_025, 1,3-bis[(4-benzyloxybenzylidene)amino]guanidine hydrochloride], the MIC in the data set with Clostridium perfringens (setting [3]) is over 200 µg/mL; in the data set on Clostridium perfringens (setting [4]), 100 µg/mL; with Clostridium perfringens (setting [5]) it was over 200 µg/mL; in the data set on Riemerella anatipestifer (setting [6]), over 200 µg/mL; with Riemerella anatipestifer (setting [7]) it was 0.39 µg/mL; in the data set with Riemerella anatipestifer (setting [8]) it was over 200 µg/mL.
With `CCCOc1ccc(C=NNC(=N)NN=Cc2ccc(OCCC)cc2)cc1.Cl` [IST_007_028, 1,3-bis[(4-propoxybenzylidene)amino]guanidine hydrochloride], the MIC in the data set on Clostridium perfringens (setting [3]) is 1.56 µg/mL; with Clostridium perfringens (setting [4]), 1.56 µg/mL; in the data set on Clostridium perfringens (setting [5]), 1.56 µg/mL; in the data set on Riemerella anatipestifer (read-out: Minimum inhibitory concentration (MIC)) it was 1.56 µg/mL; in the data set on Riemerella anatipestifer (setting [7]), 0.39 µg/mL; with Riemerella anatipestifer (setting [8]), 0.39 µg/mL. In addition, the “Survival rate (%)” value in the data set with cherry valley ducks is 100%. Further, the “Average feed conversion efficiency” value with cherry valley ducks was found to be 2.04. Moreover, the Average weight gain in the data set on cherry valley ducks is 61.6; in data set [2], 7.7 kg and 7.3 kg. For the same molecule, in data set [2], the “Average daily weight gain” value is 0.55 kg/day and 0.52 kg/day. For the same molecule, the Feed conversion efficiency in data set [2] is 1.75 and 1.85. Moreover, the “Consumption” value in data set [2] is 201.3 kg and 202.5 kg.
